These results are taken from ChEMBL document CHEMBL5442219.

SMILES strings stand for the structures.

Conditions in all cases: Compound concentration 10 µM
Assay [1] concerns the target 5-hydroxytryptamine receptor 6 (Homo sapiens) (UniProt P50406).
For assay [2], the target named is 5-hydroxytryptamine receptor 1E (Homo sapiens) (UniProt P28566).
Assay [3] has as its target T1, 5-hydroxytryptamine receptor 1A (Homo sapiens) (UniProt P08908).
T1 sequence (whole entry): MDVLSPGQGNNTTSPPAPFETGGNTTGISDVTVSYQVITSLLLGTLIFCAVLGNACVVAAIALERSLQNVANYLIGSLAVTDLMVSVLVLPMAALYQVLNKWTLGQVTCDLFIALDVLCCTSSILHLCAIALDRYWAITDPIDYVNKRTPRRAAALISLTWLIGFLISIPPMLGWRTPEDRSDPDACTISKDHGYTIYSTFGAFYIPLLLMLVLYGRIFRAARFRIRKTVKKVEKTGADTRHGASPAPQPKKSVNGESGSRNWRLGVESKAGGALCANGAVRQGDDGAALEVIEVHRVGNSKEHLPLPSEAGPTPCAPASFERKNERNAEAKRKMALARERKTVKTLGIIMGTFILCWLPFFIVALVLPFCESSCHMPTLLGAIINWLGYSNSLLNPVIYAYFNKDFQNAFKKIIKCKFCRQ

The target of assay [4] is Sodium-dependent serotonin transporter (Homo sapiens) (UniProt P31645).
Assay [5] concerns the target D(3) dopamine receptor (Homo sapiens) (UniProt P35462).
Assay [6] has as its target Histamine H3 receptor (Homo sapiens) (UniProt Q9Y5N1).
The target of assay [7] is 5-hydroxytryptamine receptor 7 (Homo sapiens) (UniProt P34969).
The target in assay [8] is Histamine H4 receptor (Homo sapiens) (UniProt Q9H3N8).
For assay [9], the target named is T2, 5-hydroxytryptamine receptor 3A (Homo sapiens) (UniProt P46098).
T2 sequence (whole entry): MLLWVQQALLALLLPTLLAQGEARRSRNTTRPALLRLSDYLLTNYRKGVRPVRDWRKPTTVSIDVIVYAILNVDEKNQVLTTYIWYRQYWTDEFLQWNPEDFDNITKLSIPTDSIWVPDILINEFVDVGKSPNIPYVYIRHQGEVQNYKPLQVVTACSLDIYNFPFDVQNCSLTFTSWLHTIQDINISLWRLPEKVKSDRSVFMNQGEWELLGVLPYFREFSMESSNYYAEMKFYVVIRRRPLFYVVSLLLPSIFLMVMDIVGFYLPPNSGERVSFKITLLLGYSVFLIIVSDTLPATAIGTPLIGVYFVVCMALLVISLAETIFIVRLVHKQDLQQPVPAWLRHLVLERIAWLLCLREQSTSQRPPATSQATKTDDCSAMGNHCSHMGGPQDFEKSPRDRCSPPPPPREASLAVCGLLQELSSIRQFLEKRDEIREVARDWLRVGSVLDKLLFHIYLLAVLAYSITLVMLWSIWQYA

Assay [10] concerns the target Muscarinic acetylcholine receptor M3 (Homo sapiens) (UniProt P20309).
Assay [11] deals with T3, Alpha-2A adrenergic receptor (Homo sapiens) (UniProt P08913).
T3 sequence (whole entry): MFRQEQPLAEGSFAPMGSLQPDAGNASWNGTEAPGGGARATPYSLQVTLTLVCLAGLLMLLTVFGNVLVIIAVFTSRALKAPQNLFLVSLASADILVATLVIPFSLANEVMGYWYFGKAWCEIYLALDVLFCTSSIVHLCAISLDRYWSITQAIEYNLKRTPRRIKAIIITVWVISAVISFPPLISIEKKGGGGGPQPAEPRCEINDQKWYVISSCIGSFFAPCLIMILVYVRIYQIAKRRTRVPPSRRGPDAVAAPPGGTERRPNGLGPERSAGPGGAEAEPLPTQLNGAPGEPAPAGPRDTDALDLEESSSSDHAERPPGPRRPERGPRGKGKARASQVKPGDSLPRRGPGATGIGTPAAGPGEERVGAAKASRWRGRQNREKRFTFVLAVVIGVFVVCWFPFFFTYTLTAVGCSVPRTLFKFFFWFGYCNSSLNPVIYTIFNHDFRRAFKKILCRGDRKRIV

Assay [12] addresses T4, Alpha-2C adrenergic receptor (Homo sapiens) (UniProt P18825).
T4 sequence (whole entry): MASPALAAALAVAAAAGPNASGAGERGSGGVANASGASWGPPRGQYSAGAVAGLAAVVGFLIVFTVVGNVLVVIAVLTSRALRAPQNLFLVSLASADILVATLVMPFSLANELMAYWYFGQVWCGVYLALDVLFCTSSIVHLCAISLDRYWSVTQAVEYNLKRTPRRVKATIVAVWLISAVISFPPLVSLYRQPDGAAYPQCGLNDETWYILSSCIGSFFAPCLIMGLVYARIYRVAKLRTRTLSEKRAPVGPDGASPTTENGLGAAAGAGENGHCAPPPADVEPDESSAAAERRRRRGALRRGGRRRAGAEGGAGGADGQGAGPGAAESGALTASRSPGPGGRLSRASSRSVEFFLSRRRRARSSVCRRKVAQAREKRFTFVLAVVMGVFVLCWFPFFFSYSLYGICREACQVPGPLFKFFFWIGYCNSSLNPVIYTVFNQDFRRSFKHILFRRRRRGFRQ

For assay [13], the target named is Sodium-dependent noradrenaline transporter (Homo sapiens) (UniProt P23975).
Assay [14] addresses T5, D(4) dopamine receptor (Homo sapiens) (UniProt P21917).
T5 sequence (whole entry): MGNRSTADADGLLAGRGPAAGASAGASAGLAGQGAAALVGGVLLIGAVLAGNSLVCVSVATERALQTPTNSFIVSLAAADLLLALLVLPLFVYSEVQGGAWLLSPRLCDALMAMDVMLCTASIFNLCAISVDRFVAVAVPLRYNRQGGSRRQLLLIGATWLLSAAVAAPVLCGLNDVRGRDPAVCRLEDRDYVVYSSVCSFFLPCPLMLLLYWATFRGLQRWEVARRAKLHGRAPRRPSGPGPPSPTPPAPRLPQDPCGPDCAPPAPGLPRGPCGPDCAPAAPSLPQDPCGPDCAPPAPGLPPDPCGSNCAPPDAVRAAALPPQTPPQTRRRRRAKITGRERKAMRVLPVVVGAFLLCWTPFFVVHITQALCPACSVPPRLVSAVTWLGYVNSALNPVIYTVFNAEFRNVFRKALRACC

Sequence of Muscarinic acetylcholine receptor M3 (Homo sapiens) (P20309 whole entry, looked up): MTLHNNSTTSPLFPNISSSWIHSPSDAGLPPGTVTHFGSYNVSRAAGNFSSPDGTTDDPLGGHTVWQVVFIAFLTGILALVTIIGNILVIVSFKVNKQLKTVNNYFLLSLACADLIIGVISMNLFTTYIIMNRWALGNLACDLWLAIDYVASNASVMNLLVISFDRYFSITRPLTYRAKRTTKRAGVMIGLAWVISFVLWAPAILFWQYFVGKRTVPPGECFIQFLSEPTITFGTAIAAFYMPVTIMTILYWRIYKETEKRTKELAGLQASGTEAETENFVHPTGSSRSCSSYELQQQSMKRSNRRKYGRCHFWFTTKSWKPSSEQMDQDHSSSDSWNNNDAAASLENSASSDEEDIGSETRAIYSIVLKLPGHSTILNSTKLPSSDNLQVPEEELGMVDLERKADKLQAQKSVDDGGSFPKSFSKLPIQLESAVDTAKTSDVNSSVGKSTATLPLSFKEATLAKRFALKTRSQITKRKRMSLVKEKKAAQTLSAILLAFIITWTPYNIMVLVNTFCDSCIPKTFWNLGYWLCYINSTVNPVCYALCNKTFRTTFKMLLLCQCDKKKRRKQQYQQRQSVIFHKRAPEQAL
Sequence of Sodium-dependent noradrenaline transporter (Homo sapiens) (P23975 whole entry): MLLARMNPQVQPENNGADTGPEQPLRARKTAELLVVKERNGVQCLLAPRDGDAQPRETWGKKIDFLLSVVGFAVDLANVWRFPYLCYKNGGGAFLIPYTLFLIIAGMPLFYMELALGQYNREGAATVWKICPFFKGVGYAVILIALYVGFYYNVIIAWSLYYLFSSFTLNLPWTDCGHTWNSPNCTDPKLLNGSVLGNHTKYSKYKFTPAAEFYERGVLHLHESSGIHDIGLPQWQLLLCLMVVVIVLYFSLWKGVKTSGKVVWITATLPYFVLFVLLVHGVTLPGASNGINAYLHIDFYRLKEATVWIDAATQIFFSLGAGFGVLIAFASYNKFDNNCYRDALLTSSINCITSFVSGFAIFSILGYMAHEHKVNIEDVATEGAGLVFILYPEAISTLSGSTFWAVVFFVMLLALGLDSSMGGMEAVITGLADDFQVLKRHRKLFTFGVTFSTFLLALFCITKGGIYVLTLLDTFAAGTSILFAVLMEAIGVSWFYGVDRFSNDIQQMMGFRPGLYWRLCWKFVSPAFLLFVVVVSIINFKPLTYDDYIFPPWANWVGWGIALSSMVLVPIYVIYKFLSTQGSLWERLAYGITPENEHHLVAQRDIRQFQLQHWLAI
Sequence of 5-hydroxytryptamine receptor 1E (Homo sapiens) (P28566 whole entry): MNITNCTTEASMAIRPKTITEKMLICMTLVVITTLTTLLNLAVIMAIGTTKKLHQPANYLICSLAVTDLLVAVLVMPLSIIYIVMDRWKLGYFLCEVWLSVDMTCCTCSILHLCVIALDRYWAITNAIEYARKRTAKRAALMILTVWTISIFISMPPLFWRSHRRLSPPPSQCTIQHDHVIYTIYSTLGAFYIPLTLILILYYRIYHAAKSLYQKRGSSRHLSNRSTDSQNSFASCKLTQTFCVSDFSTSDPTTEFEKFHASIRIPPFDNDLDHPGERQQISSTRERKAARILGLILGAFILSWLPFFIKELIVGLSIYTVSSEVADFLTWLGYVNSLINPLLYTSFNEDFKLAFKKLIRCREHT
Sequence of Histamine H3 receptor (Homo sapiens) (Q9Y5N1 whole entry): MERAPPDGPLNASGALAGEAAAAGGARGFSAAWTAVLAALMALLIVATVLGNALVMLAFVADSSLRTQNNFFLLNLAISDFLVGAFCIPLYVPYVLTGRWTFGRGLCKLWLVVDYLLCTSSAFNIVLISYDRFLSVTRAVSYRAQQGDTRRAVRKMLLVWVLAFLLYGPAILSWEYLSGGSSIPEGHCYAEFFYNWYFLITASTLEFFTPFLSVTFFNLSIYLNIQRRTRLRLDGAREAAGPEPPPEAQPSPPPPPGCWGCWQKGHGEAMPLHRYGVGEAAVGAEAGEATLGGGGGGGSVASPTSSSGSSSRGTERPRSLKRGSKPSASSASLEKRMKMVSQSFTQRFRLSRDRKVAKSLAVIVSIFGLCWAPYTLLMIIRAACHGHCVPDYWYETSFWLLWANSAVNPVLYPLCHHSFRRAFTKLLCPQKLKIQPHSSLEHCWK
Sequence of D(3) dopamine receptor (Homo sapiens) (P35462 whole entry): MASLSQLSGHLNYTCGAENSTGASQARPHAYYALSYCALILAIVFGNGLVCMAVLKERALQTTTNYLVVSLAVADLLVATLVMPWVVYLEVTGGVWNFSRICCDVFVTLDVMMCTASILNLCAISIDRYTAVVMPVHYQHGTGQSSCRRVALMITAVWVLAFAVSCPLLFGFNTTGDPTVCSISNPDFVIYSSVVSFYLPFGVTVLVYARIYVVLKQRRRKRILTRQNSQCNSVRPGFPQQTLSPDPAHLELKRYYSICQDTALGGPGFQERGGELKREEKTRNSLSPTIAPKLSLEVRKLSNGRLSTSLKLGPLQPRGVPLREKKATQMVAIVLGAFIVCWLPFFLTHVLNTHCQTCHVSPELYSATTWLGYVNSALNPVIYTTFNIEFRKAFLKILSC
Sequence of 5-hydroxytryptamine receptor 6 (Homo sapiens) (P50406 whole entry): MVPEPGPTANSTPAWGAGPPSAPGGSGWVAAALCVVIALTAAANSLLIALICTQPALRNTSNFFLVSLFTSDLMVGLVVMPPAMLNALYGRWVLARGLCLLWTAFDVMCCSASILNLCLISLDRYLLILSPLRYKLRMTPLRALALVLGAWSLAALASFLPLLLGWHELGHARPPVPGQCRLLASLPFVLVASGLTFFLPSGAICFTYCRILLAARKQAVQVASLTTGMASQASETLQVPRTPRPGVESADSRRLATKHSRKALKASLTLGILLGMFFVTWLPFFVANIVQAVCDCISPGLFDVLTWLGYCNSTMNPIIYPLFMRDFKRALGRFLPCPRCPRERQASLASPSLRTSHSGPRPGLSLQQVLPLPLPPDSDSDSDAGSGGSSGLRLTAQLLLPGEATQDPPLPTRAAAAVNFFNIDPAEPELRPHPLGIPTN
Sequence of Histamine H4 receptor (Homo sapiens) (Q9H3N8 whole entry): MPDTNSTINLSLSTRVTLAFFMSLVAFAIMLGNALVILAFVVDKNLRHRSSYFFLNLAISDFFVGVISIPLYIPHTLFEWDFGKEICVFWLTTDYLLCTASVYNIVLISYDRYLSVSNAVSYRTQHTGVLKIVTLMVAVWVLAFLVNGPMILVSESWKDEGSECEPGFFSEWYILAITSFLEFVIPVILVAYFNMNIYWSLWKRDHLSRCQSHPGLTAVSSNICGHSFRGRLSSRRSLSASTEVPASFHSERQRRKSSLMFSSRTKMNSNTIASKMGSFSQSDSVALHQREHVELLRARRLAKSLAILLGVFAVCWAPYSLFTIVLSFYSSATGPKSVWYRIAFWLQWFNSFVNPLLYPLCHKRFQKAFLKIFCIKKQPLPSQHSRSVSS
Sequence of 5-hydroxytryptamine receptor 7 (Homo sapiens) (P34969 whole entry): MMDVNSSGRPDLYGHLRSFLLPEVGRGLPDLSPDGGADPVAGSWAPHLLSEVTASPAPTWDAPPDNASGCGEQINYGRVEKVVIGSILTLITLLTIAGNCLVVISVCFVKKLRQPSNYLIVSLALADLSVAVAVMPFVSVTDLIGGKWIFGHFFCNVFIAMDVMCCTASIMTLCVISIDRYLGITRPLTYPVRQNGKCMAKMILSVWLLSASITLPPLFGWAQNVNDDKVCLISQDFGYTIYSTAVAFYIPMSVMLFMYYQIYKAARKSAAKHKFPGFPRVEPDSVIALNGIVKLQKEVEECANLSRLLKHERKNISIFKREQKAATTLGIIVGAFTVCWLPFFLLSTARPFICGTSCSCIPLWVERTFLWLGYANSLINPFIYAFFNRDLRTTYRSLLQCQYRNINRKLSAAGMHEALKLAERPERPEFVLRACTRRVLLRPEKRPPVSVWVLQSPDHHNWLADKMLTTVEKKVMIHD
Sequence of Sodium-dependent serotonin transporter (Homo sapiens) (P31645 whole entry, looked up): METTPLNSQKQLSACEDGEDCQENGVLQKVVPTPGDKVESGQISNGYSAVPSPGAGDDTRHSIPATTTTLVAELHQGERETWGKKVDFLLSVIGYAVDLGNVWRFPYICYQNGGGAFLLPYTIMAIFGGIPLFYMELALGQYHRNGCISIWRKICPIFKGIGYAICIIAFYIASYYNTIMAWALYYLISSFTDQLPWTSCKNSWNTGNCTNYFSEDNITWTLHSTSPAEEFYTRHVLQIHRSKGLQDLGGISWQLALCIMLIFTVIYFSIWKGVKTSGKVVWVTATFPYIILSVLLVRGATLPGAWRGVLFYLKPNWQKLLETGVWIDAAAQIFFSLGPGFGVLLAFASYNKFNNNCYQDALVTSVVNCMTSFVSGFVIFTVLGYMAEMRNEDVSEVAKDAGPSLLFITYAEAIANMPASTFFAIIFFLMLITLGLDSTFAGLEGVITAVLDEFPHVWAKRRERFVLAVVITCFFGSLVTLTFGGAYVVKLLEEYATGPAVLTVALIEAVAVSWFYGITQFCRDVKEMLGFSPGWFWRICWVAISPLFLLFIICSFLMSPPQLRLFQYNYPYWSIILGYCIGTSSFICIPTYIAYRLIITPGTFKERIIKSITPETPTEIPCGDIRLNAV

As to `C[C@H](CO)Nc1nc(SCc2cccc(Cl)c2F)nc2[nH]c(=O)sc12`, the inhibition in [1] was -7.23%; in assay [2] it was -4.99%; in assay [3], 6.98%; in assay [4] it was 1.74%; in assay [5], 13.7%; in assay [6], 5.16%. The inhibition in assay [7] was -7.53%.

On to `C=CCN1C[C@H](C)N([C@H](c2ccc(C(=O)N(CC)CC)cc2)c2cccc(O)c2)C[C@H]1C`, for which the inhibition was -9.85% in assay [8]; 10% in assay [9]; 5.03% in [1]; 19.5% in assay [2]; -6.19% in assay [10]; 17.8% in [11]. Further, the inhibition is 25.4% in assay [12]; 13% in assay [13]; 13.7% in assay [4]; 6.85% in [5]; 0.95% in assay [6].

Turning to `CCCCN(CCCC)C(=O)CN1C[C@@H](c2ccc3c(c2)OCO3)[C@H](C(=O)O)[C@H]1c1ccc(OC)cc1`, the inhibition in assay [8] is 4.49%; in [9], 2.68%; in [2], -0.09%; in assay [3], -4.59%; in [11] it was 0.09%; in assay [14] it was 60.5%. Further, the inhibition in assay [12] is -5.48%; in assay [13] it was 5.56%; in assay [4], -9.18%; in assay [5] it was 28.4%; in [6], -6.84%; in [7] it was -7.92%.

`CCCCCNC(=O)NS(=O)(=O)c1cc([N+](=O)[O-])ccc1NC1CCCCC1`: the inhibition in assay [8] is 16.9%; in assay [9] it was -7.62%; in [1] it was 12.8%; in assay [2], 16.8%; in assay [3], 1.18%; in assay [10], 16.6%. Moreover, the inhibition in assay [12] was -0.86%; in [13], 83.9%; in assay [4], 85.4%; in assay [5], 52.2%; in [6], 11.4%.

As for `O=c1ccn([C@@H]2O[C@H](COP(=O)(O)OP(=O)(O)O)[C@@H](O)[C@H]2O)c(=O)[nH]1`, the inhibition in [8] is 7.98%; in assay [1], 6.18%; in [2], 9.09%; in assay [3], 5.47%; in assay [10], 2.51%; in assay [12], -6.08%. Also, the inhibition is 13.7% in [13], 21.1% in [4], 7.98% in assay [5] and 7.28% in assay [6].

On to `CC(C)NCC(O)COc1ccc(CCOCC2CC2)cc1` (configuration not stated), for which the inhibition in assay [9] is -0.24%; in assay [1], -5.1%; in [2] it was 5.21%; in [3] it was -1.07%; in assay [10], 1.59%; in assay [11], 20.5%. Besides, the inhibition in assay [12] was 2.92%; in [13], 45.1%; in [4] it was -2.29%; in assay [5] it was 5.81%; in assay [6], 28.3%.

Regarding `Oc1ccc2c3c1O[C@H]1c4[nH]c5c(c4C[C@@]4(O)[C@@H](C2)N(CC2CC2)CC[C@]314)C[C@@]1(O)[C@H]2Cc3ccc(O)c4c3[C@@]1(CCN2CC1CC1)[C@H]5O4`, the inhibition in assay [8] was 1.48%; in [9] it was 6.54%; in assay [1] it was 11.4%; in assay [10] it was 3.43%; in assay [11], 6.23%; in assay [14], 14.9%. The inhibition in assay [12] is 15.5%; in assay [13], 12.7%; in assay [4], -6.45%; in assay [5], 4.68%; in assay [6] it was 6.5%.

On to `Cc1csc2c(N[C@@H](C)CN3CCN(S(=O)(=O)c4ccc(Cl)c(Cl)c4)CC3)ncnc12`, for which the inhibition was 9.69% in assay [8]; 12.8% in [1]; -3.07% in assay [2]; 17% in [3]; -6% in assay [10]; -8.93% in assay [11]. Moreover, the inhibition is 19.2% in [14]; 14.6% in [12]; -2.51% in assay [13]; 44.9% in assay [4]; 67.4% in assay [5]; 2.97% in assay [6].

`CSc1ccc(C(=O)N[C@@H]2CCCC[C@@H]2NC(=O)CNC(=O)c2cc(C(F)(F)F)ccc2NC(=O)NC(C)C)cc1`: the inhibition in assay [9] is -5.92%; in [2] it was -4.02%; in assay [3] it was 22.6%; in assay [11], -2.26%; in assay [14], 3.27%; in [4], 13.7%. Further, the inhibition in [5] was 86.6%; in assay [6] it was 4.61%; in [7] it was 2.72%.

As to `COc1ccc(OC(F)(F)F)cc1CN[C@H]1CCCN[C@H]1c1ccccc1`, the inhibition in [8] is 1.14%; in assay [9] it was 13.1%; in assay [1] it was 23.8%; in [2], 12.4%; in assay [3], 56.2%; in [10], -8.99%. For the same compound, the inhibition is 38.4% in [11]; -2.15% in assay [14]; 9.77% in assay [12]; 22.6% in assay [13]; 38.8% in [4]; 36.3% in assay [5].

With `C[C@@H](NCCc1ccc(O)cc1)[C@@H](O)c1ccc(O)cc1` (relative stereo), the inhibition in assay [8] is 5.86%; in [2], -0.11%; in assay [3], -2.23%; in assay [10], 18.1%; in assay [11] it was -0.38%; in [14], -1.86%. The inhibition in [12] was 23.6%; in assay [13], 51.8%; in [4] it was 52.3%; in [5] it was 34.6%; in assay [6], 0.59%.

As a reminder, the inhibition is the relative decrease from the control value, in per cent.
